Results as given in PubChem BioAssay AID2060495 (Molecular Pharmacology Branch, DTP, NCI, 2025).

System: 521955-158-R2-J5-PDC complex spheroid viability
Assay: Anticancer human tumor 521955-158-R2-J5-PDC patient-derived pancreatic carcinoma cell line growth inhibition [GQUAD]
Details: for viability, T/C: stronger effect = lower value; active means viability on the fitted dose curve at most 10% of control; inactive means the rest
Excerpt: DNA G-quadruplex Stabilizer Agents in Combinations in Complex Spheroids
A high-throughput screen of multi-cell type tumor spheroids was designed to identify active combinations of DNA G-quadruplex stabilizer agents and targeted small molecules. Complex spheroids include a stromal component modeled by human endothelial cells (HUVEC) and fibroblasts modeled by human mesenchymal stem cells (MSCs). The concentration ranges selected for each drug and investigational agent were based upon clinically achievable concentrations if the clinical Cmax of the agent was known.
Compounds. The drugs and investigational agents: pidnarulex (CX-5461; NSC782164), APTO-253 (NSC789042), BRACO-19 (NSC847499), peposertib (NSC802822), ceralasertib (NSC780249), elimusertib (NSC800525), camonsertib (NSC841442), AZD-1390 (NSC803789), olaparib (NSC753686), talazoparib (NSC767125), ART-558 (NSC835418), sotorasib (NSC818433), MRTX-1133 (NSC836407), SN-38 (NSC673596), topotecan (NSC609699), etoposide (NSC141540), doxorubicin (NSC123127), gemcitabine (NSC613327), 5-fluorouracil (NSC19893), paclitaxel (NSC125973), vemurafenib (NSC761431), panobinostat (NSC761190), R-306465 (JNJ-16241199; NSC773264), adavosertib (NSC754352), TP-3654 (NSC805149), carboplatin (NSC241240), KSQ-4279 (NSC840948), and staurosporine (NSC755774) were obtained from the National Cancer Institute (NCI) Developmental Therapeutics Program Chemical Repository (34). The FDA-approved anticancer drug set is available from the NCI Developmental Therapeutics Program. […] The stock solutions were prepared in dimethyl sulfoxide (DMSO, Sigma-Aldrich, St. Louis, MO, cat. D2650) at 800-fold the tested concentration and stored at -70 degrees C prior to their use. All drugs and investigational agents were tested over a range starting from a high concentration at or near the clinical Cmax and decreasing in half-log increments. If the clinical Cmax for an agent had not been determined, the highest concentration tested was 10 microM.
2.3 Cell Culture. All cells were maintained in an incubator at 37 degrees C and 5% CO2 with 95% humidity. The PDC lines were cultured according to standard operating procedures established by the NCI PDMR. All PDCs were thawed and cultured in Matrigel-coated flasks prepared with a working solution of 1X Ham's F-12 nutrient mix, without supplementation (Invitrogen, cat. 11765054), 100 U/mL penicillin-streptomycin (Invitrogen, cat. 15140122), and 2.5% Matrigel (Corning Inc., cat. 354248) for the first three passages. The 857933-349-R-J2-PDC line was cultured in 6C/Colon 1B media, which includes advanced DMEM/F-12 (Thermo Fisher Scientific, cat. 12634028), 10 mM HEPES (Thermo Fisher Scientific, cat. 15630080), 1X GlutaMAX supplement (Thermo Fisher Scientific, cat. 35050061), 0.1 mg/mL primocin (InvivoGen, cat. ant-pm-2), 10% defined fetal bovine serum, heat inactivated (HyClone Laboratories Inc., cat. SH30070.03HI), 50% L-WRN conditioned media (ATCC, cat. CRL-3276), 1.25 mM N-Acetyl-L-cysteine (Sigma-Aldrich, cat. A9165), 10 mM nicotinamide (Sigma-Aldrich, cat. N0636), 1X B-27 supplement (Thermo Fisher Scientific, cat. 17504044), 1X N-2 supplement (Thermo Fisher Scientific, cat. 17502048), 10 microM Y-27632 dihydrochloride (Tocris Bioscience, cat. 1254), and 50 ng/mL human EGF recombinant protein (Thermo Fisher Scientific, cat. PHG0311). The 485176-168-R4-J1-PDC line was cultured in Panc media, which includes all 6C/Colon 1B media components plus 100 ng/mL human FGF-10 (Thermo Fisher Scientific, cat. 100-26), 500 nM SB-431542 (Selleckchem, cat. S1067), and gastrin (Tocris, cat. 3006).
[…]

[1] = curve of first compound, second compound 0.0316 µM
[2] = curve of first compound, second compound 0.1 µM
[3] = curve of first compound, second compound 0.316 µM
[4] = curve of first compound, second compound 1 µM
[5] = curve of first compound, second compound 3.16 µM
[6] = curve of first compound, second compound 10 µM
[7] = second compound 0.0316 µM, first compound 0.0316 µM
[8] = second compound 0.0316 µM, first compound 0.1 µM
[9] = second compound 0.0316 µM, first compound 0.316 µM
[10] = second compound 0.0316 µM, first compound 1 µM
[11] = second compound 0.0316 µM, first compound 3.16 µM
[12] = second compound 0.0316 µM, first compound 10 µM
[13] = second compound 0.1 µM, first compound 0.0316 µM
[14] = second compound 0.1 µM, first compound 0.1 µM
[15] = second compound 0.1 µM, first compound 0.316 µM
[16] = second compound 0.1 µM, first compound 1 µM
[17] = second compound 0.1 µM, first compound 3.16 µM
[18] = second compound 0.1 µM, first compound 10 µM
[19] = second compound 0.316 µM, first compound 0.0316 µM
[20] = second compound 0.316 µM, first compound 0.1 µM
[21] = second compound 0.316 µM, first compound 0.316 µM
[22] = second compound 0.316 µM, first compound 1 µM
[23] = second compound 0.316 µM, first compound 3.16 µM
[24] = second compound 0.316 µM, first compound 10 µM
[25] = second compound 1 µM, first compound 0.0316 µM
[26] = second compound 1 µM, first compound 0.1 µM
[27] = second compound 1 µM, first compound 0.316 µM
[28] = second compound 1 µM, first compound 1 µM
[29] = second compound 1 µM, first compound 3.16 µM
[30] = second compound 1 µM, first compound 10 µM
[31] = second compound 3.16 µM, first compound 0.0316 µM
[32] = second compound 3.16 µM, first compound 0.1 µM
[33] = second compound 3.16 µM, first compound 0.316 µM
[34] = second compound 3.16 µM, first compound 1 µM
[35] = second compound 3.16 µM, first compound 3.16 µM
[36] = second compound 3.16 µM, first compound 10 µM
[37] = second compound 10 µM, first compound 0.0316 µM
[38] = second compound 10 µM, first compound 0.1 µM
[39] = second compound 10 µM, first compound 0.316 µM
[40] = second compound 10 µM, first compound 1 µM
[41] = second compound 10 µM, first compound 3.16 µM
[42] = second compound 10 µM, first compound 10 µM
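Further: spheroids exposed to agents for one week before reading.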

CC(=O)O[C@H]1C(=O)[C@@]2(C)[C@H]([C@H](OC(=O)c3ccccc3)[C@]3(O)C[C@H](OC(=O)[C@H](O)[C@@H](NC(=O)c4ccccc4)c4ccccc4)C(C)=C1C3(C)C)[C@]1(OC(C)=O)CO[C@@H]1C[C@@H]2O + Cc1[nH]c2ccc(F)cc2c1-c1nc2c3cccnc3c3ncccc3c2[nH]1
< 31.6 nM: IC50 [1] | IC50 [2] | IC50 [3] | IC50 [4] | IC50 [5] | IC50 [6]
inactive: viability, T/C [7] 46.1% | viability, T/C [8] 34.1% | viability, T/C [9] 31% | viability, T/C [10] 30.8% | viability, T/C [11] 30.8% | viability, T/C [12] 25.6% | viability, T/C [13] 49% | viability, T/C [14] 43.9% | viability, T/C [15] 39% | viability, T/C [16] 31.2% | viability, T/C [17] 35.7% | viability, T/C [18] 29.9% | viability, T/C [19] 47.6% | viability, T/C [20] 37.5% | viability, T/C [21] 31.4% | viability, T/C [22] 27.5% | viability, T/C [23] 32.1% | viability, T/C [24] 24.2% | viability, T/C [25] 43.6% | viability, T/C [26] 41.5% | viability, T/C [27] 43.4% | viability, T/C [28] 31.5% | viability, T/C [29] 19.8% | viability, T/C [30] 33.5% | viability, T/C [31] 38.7% | viability, T/C [32] 36.7% | viability, T/C [33] 30.6% | viability, T/C [34] 32.5% | viability, T/C [35] 34.9% | viability, T/C [36] 30.2% | viability, T/C [37] 41.3% | viability, T/C [38] 41.9% | viability, T/C [39] 32.8% | viability, T/C [40] 40.2% | viability, T/C [41] 37.7% | viability, T/C [42] 39%

Cc1cnc(CNC(=O)c2c(=O)c3ccc(N4CCCN(C)CC4)nc3n3c2sc2ccccc23)cn1
137 nM [middle of 11 runs]: IC50 (compound alone, run of 04/16/2024)
inactive: viability, T/C (compound 0.0316 µM) 79.7% [middle of 12 runs] | viability, T/C (compound 0.316 µM) 38.2% [middle of 12 runs] | viability, T/C (compound 1 µM) 22.1% [middle of 12 runs] | viability, T/C (compound 3.16 µM) 20.7% [middle of 12 runs] | viability, T/C (compound 10 µM) 18.8% [middle of 12 runs]

CC1COCCN1c1cc(C2(S(C)(=N)=O)CC2)nc(-c2ccnc3[nH]ccc23)n1 (stereo not given) + Cc1[nH]c2ccc(F)cc2c1-c1nc2c3cccnc3c3ncccc3c2[nH]1
698 nM: IC50 [1]
active: viability, T/C [17] 8.56% | viability, T/C [18] 8.84% | viability, T/C [23] 9.15% | viability, T/C [24] 10.3%
736 nM: IC50 [3]
806 nM: IC50 [5]
724 nM: IC50 [6]
712 nM: IC50 [4]
793 nM: IC50 [2]
inactive: viability, T/C [7] 113% | viability, T/C [8] 103% | viability, T/C [9] 114% | viability, T/C [10] 22.6% | viability, T/C [11] 10.1% | viability, T/C [12] 11.7% | viability, T/C [13] 96.6% | viability, T/C [14] 109% | viability, T/C [15] 111% | viability, T/C [16] 35.9% | viability, T/C [19] 108% | viability, T/C [20] 91.7% | viability, T/C [21] 101% | viability, T/C [22] 31.7% | viability, T/C [25] 93.2% | viability, T/C [26] 104% | viability, T/C [27] 117% | viability, T/C [28] 27.1% | viability, T/C [29] 11.5% | viability, T/C [30] 11.7% | viability, T/C [31] 85.2% | viability, T/C [32] 105% | viability, T/C [33] 99.1% | viability, T/C [34] 39.3% | viability, T/C [35] 13.7% | viability, T/C [36] 8.99% | viability, T/C [37] 109% | viability, T/C [38] 105% | viability, T/C [39] 110% | viability, T/C [40] 27.4% | viability, T/C [41] 14.7% | viability, T/C [42] 10.9%
